Assay results reported in patent US5368707A, “Convenient determination of trace lead in whole blood and other fluids” (priority 1993, dated 1994).
“Also recorded” adds a separate entry of the source.

Tests used:
isocitrate dehydrogenase = molecular target: T1, isocitrate dehydrogenase (Sus scrofa, UniProt P33198); assay: Effect of complexing agents and other assay components on isocitrate dehydrogenase activity and its lead inhibition; type: biochemical, pig
T1 construct: purchased Sigma, St. Louis, Mo; ICD Type VI
T1 sequence (P33198 9-421): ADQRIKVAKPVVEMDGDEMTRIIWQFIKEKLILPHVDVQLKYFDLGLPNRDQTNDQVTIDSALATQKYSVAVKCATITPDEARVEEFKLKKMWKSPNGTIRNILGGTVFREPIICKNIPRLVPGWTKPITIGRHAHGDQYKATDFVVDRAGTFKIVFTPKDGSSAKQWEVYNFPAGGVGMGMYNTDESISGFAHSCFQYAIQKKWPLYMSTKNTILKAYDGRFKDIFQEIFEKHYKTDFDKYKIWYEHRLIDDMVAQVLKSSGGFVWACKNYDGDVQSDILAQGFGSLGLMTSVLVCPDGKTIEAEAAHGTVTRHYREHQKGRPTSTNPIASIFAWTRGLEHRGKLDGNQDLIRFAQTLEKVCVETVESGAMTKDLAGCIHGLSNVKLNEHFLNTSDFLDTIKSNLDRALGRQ
From the text: Any agent used for displacing lead from the EDTA complex must not interfere with the function or activity of the enzyme employed for detection. […] Other auxiliary complexing agents may also be useful, including iminodiacetate, citrate and lithium ion. Li^+1 is known to weaken lead ion binding to bovine serum albumin and is contemplated to be effective in displacing Pb^2+ from the complex.
To solve this problem, the inventors have employed strong chelating reagents to sequester lead ion from interfering blood proteins subsequent to release of the lead from the selected chelating reagent.

alcohol dehydrogenase = tested on: alcohol dehydrogenase
Experimental: A bioelectrode was prepared from colloidal gold adsorbed alcohol dehydrogenase according the procedure of Example 2 for ICD. Measurements were made in the microcell as described in Example 1 using various concentrations of mercury.

[1] = colloidal gold/ADH bioelectrode

| Compound | effect on ICDH activity / lead inhibition of ICDH (isocitrate dehydrogenase) | other results |
| --- | --- | --- |
| c1ccc(-c2ccccn2)nc1 [dipyridyl] | the activity, stability and lead inhibition are not adversely affected |  |
| O=C(O)[C@@H](S)[C@@H](S)C(=O)O [DMSA, meso 2,3-dimercaptosuccinic acid] | do not interfere with electrochemical detection of lead by ICDH inhibition; also recorded: the activity, stability and lead inhibition are not adversely affected |  |
| mercury ion |  | detection range (alcohol dehydrogenase; colloidal gold adsorbed ADH biosensor): nanomolar range; amperometric response (alcohol dehydrogenase; [1]): linear response in at nanomolar levels; reversibility of inhibition (alcohol dehydrogenase; [1]): irreversible; specificity of inhibition (alcohol dehydrogenase; in the presence of added lead ion): specific for mercury in the presence of added lead ion |
| C[n+]1c2ccccc2nc2ccccc21 [NMP-MS, N-methylphenazine methosulfate] | interfered with inhibition of the enzyme by added lead ion |  |
| [Mg+2] [Mg^+2] |  | effectiveness as cofactor of isocitric dehydrogenase (isocitrate dehydrogenase; compared with Mn2+, millimolar concentrations): equally effective |
| O=C(O)CN(CCN(CC(=O)O)CC(=O)O)CC(=O)O [EDTA] | adversely affect lead ion inhibition of isocitric dehydrogenase |  |
| CC(=O)O [acetate] | the activity, stability and lead inhibition are not adversely affected |  |
| c1ccc(-c2ccccc2)cc1 [biphenyl] | do not interfere with electrochemical detection of lead by ICDH inhibition |  |
| c1cnc2c(c1)ccc1cccnc12 [o-phenanthroline] | do not interfere with electrochemical detection of lead by ICDH inhibition; also recorded: the activity, stability and lead inhibition are not adversely affected |  |
